Values joined by “and” are separate entries in the source; they are usually repeats but may differ in a detail not shown here. Equal entries are not always repeated. Toxic doses and inconclusive results are not listed. Non-standard residues stand in square brackets, D forms with d. Residues, ends and D or L forms follow the SMILES beside them. ξ: configuration not given here. Ac5c = NC1(C(=O)O)CCCC1; ξS = NC(CO)C(=O)O
System: BDF1 mice, P388 leukemia ip, median survival T/C
Experiment: NCI In Vivo Anticancer Drug Screen. Data for tumor model P388 Leukemia (intraperitoneal) in B6D2F1 (BDF1) mice
Conditions: endpoint: median survival time, higher = longer survival
Outline: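 Each value expresses how treatment altered survival: treated-mouse outcome over vehicle-mouse outcome, both groups bearing the transplanted tumour.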

[1] = dose: 50.0 mg/kg/injection, schedule: Q01DX001 (ip), vehicle: saline with Tween-80
[2] = dose: 100.0 mg/kg/injection, schedule: Q01DX001 (ip), vehicle: saline with Tween-80
[3] = dose: 200.0 mg/kg/injection, schedule: Q01DX001 (ip), vehicle: saline with Tween-80
[4] = dose: 50.0 mg/kg/injection, schedule: Q04DX003 (ip), vehicle: saline
[5] = dose: 50.0 mg/kg/injection, schedule: Q04DX003 (ip), vehicle: Klucel (hydroxypropylcellulose) (HPC)
[6] = dose: 100.0 mg/kg/injection, schedule: Q01DX009 (ip), vehicle: Klucel (hydroxypropylcellulose) (HPC)
[7] = dose: 100.0 mg/kg/injection, schedule: Q04DX003 (ip), vehicle: Klucel (hydroxypropylcellulose) (HPC)
[8] = dose: 200.0 mg/kg/injection, schedule: Q01DX009 (ip), vehicle: Klucel (hydroxypropylcellulose) (HPC)
[9] = dose: 200.0 mg/kg/injection, schedule: Q04DX003 (ip), vehicle: Klucel (hydroxypropylcellulose) (HPC)
[10] = dose: 100.0 mg/kg/injection, schedule: Q01DX009 (ip), vehicle: saline with Tween-80
[11] = dose: 200.0 mg/kg/injection, schedule: Q01DX009 (ip), vehicle: saline with Tween-80
[12] = dose: 400.0 mg/kg/injection, schedule: Q01DX009 (ip), vehicle: saline with Tween-80
[13] = dose: 6.25 mg/kg/injection, schedule: Q01DX009 (ip), vehicle: Klucel (hydroxypropylcellulose) (HPC)
[14] = dose: 50.0 mg/kg/injection, schedule: Q01DX009 (ip), vehicle: saline with Tween-80
[15] = dose: 100.0 mg/kg/injection, schedule: Q04DX002 (ip), vehicle: saline with Tween-80
[16] = dose: 400.0 mg/kg/injection, schedule: Q01DX009 (ip), vehicle: Klucel (hydroxypropylcellulose) (HPC)
[17] = dose: 400.0 mg/kg/injection, schedule: Q04DX003 (ip), vehicle: Klucel (hydroxypropylcellulose) (HPC)
[18] = dose: 200.0 mg/kg/injection, schedule: Q04DX002 (ip), vehicle: saline with Tween-80
[19] = dose: 400.0 mg/kg/injection, schedule: Q01DX001 (ip), vehicle: saline with Tween-80

For `COC(C/C=C\C=C\CC/C=C/CC(C)/C=C/C(=C\C(=O)O)CC(=O)O)/C(C)=C\C=C(/C)C(=O)O` (configuration not stated), the T/C (dose: 1.0 mg/kg/injection, schedule: Q04DX003 (ip), vehicle: saline) was 100 % of control, the T/C (dose: 2.0 mg/kg/injection, schedule: Q04DX003 (ip), vehicle: saline) was 88 % of control and the T/C (dose: 4.0 mg/kg/injection, schedule: Q01DX009 (ip), vehicle: saline) was 87 % of control. For the same compound, the T/C (dose: 4.0 mg/kg/injection, schedule: Q04DX003 (ip), vehicle: saline) was 94 % of control, the T/C (dose: 6.0 mg/kg/injection, schedule: Q04DX003 (ip), vehicle: saline) was 100 % of control and the T/C (dose: 8.0 mg/kg/injection, schedule: Q01DX009 (ip), vehicle: saline) was 87 % of control. For the same compound, the T/C (dose: 8.0 mg/kg/injection, schedule: Q04DX003 (ip), vehicle: saline) was 108 % of control, the T/C (dose: 16.0 mg/kg/injection, schedule: Q01DX009 (ip), vehicle: saline) was 100 % of control and the T/C (dose: 16.0 mg/kg/injection, schedule: Q04DX003 (ip), vehicle: saline) was 95 % of control.

`CCCCCCCCCCCCCCCCOc1ccc(CC)cc1` was tested, and the T/C [1] was 95 % of control, the T/C [2] was 90 % of control and the T/C [3] was 100 % of control.

With `CC(C)C1(C(C)C)OCCO1` the T/C [4] was 87 % of control, the T/C (dose: 100.0 mg/kg/injection, schedule: Q04DX003 (ip), vehicle: saline) was 108 % of control and the T/C (dose: 200.0 mg/kg/injection, schedule: Q04DX003 (ip), vehicle: saline) was 100 % of control.

In the case of `COc1cccc(CC(=O)C(=O)O)c1`, the T/C (dose: 50.0 mg/kg/injection, schedule: Q01DX009 (ip), vehicle: Klucel (hydroxypropylcellulose) (HPC)) was 95 % of control, the T/C [5] was 100 % of control and the T/C [6] was 104 % of control. The T/C [7] was 115 % of control, the T/C [8] was 90 % of control and the T/C [9] was 110 % of control.

`NC(CO)C(=O)NC1(C(=O)O)CCCC1` (configuration not stated) (H-[ξS]-[Ac5c]-OH) was tested, and the T/C [10] was 109 % of control, the T/C [11] was 118 % of control and the T/C [12] was 95 % of control.

With `O=C(Cc1ccc([N+](=O)[O-])cc1)c1ccc(O)cc1O` the T/C [5] was 86 % of control, the T/C [7] was 95 % of control and the T/C [9] was 90 % of control.

With `CC(=O)OCc1c(C)nc2sccn12` the T/C (dose: 12.5 mg/kg/injection, schedule: Q01DX001 (ip), vehicle: saline) was 102 % of control, the T/C (dose: 25.0 mg/kg/injection, schedule: Q01DX001 (ip), vehicle: saline) was 92 % of control and the T/C (dose: 50.0 mg/kg/injection, schedule: Q01DX001 (ip), vehicle: saline) was 96 % of control.

With `CCCCCCCCCCCCCCCCOc1c(Br)cc(Br)cc1Br` the T/C [1] was 90 % of control.

`O=C1C(Br)=CC(=NCl)C=C1Br` was tested, and the T/C (dose: 3.13 mg/kg/injection, schedule: Q01DX009 (ip), vehicle: Klucel (hydroxypropylcellulose) (HPC)) was 118 % of control, the T/C [13] was 112 % of control and the T/C (dose: 12.5 mg/kg/injection, schedule: Q01DX009 (ip), vehicle: Klucel (hydroxypropylcellulose) (HPC)) was 120 % of control. The T/C (dose: 25.0 mg/kg/injection, schedule: Q01DX009 (ip), vehicle: Klucel (hydroxypropylcellulose) (HPC)) was 103 % of control.

`CC(C)CCCC(C)C1CCC2C3CC=C4CC([Se][As](C)C)CCC4(C)C3CCC12C` (configuration not stated) was tested, and the T/C [14] was 118 % of control and the T/C [10] was 111 % of control.

`CC(=O)/C=C/c1ccccc1` was tested, and the T/C [10] was 91 % of control and 109 % of control, the T/C [11] was 108 % of control and 118 % of control and the T/C [12] was 117 % of control.

With `CC1=CC2OC34COC3CC(OC(=O)C(F)(F)F)C4(C)C2(C)CC1` (configuration not stated) the T/C (dose: 75.0 mg/kg/injection, schedule: Q04DX003 (ip), vehicle: saline with Tween-80) was 110 % of control and the T/C (dose: 300.0 mg/kg/injection, schedule: Q04DX003 (ip), vehicle: saline with Tween-80) was 117 % of control.

With `CC(=O)Oc1ccc(OC(C)=O)c2c1C(=O)C=CC2=O` the T/C (dose: 0.09 mg/kg/injection, schedule: Q01DX009 (ip), vehicle: Klucel (hydroxypropylcellulose) (HPC)) was 97 % of control, the T/C (dose: 0.18 mg/kg/injection, schedule: Q01DX009 (ip), vehicle: Klucel (hydroxypropylcellulose) (HPC)) was 97 % of control and the T/C (dose: 0.37 mg/kg/injection, schedule: Q01DX009 (ip), vehicle: Klucel (hydroxypropylcellulose) (HPC)) was 112 % of control. The T/C (dose: 0.75 mg/kg/injection, schedule: Q01DX009 (ip), vehicle: Klucel (hydroxypropylcellulose) (HPC)) was 118 % of control, the T/C (dose: 1.5 mg/kg/injection, schedule: Q01DX009 (ip), vehicle: Klucel (hydroxypropylcellulose) (HPC)) was 93 % of control and 98 % of control and the T/C (dose: 3.0 mg/kg/injection, schedule: Q01DX009 (ip), vehicle: Klucel (hydroxypropylcellulose) (HPC)) was 95 % of control. The T/C [13] was 91 % of control.

`C=Cn1ccnc1C.C=Cn1ccnc1C.CC(=O)CC(C)=O.CC(=O)CC(C)=O.[Co]` was tested, and the T/C (dose: 12.5 mg/kg/injection, schedule: Q04DX003 (ip), vehicle: saline) was 106 % of control, the T/C (dose: 25.0 mg/kg/injection, schedule: Q04DX003 (ip), vehicle: saline) was 106 % of control and the T/C [4] was 117 % of control.

In the case of `OCCOc1c(Cl)cc(Cl)cc1Cl`, the T/C [14] was 100 % of control, the T/C [10] was 100 % of control and the T/C (dose: 100.0 mg/kg/injection, schedule: Q04DX003 (ip), vehicle: saline with Tween-80) was 113 % of control. For the same compound, the T/C [11] was 100 % of control and the T/C (dose: 200.0 mg/kg/injection, schedule: Q04DX003 (ip), vehicle: saline with Tween-80) was 100 % of control.

For `Nc1cc2nnc(-c3ccccc3)c(-c3ccccc3)n2n1`, the T/C [15] was 89 % of control and the T/C (dose: 400.0 mg/kg/injection, schedule: Q04DX002 (ip), vehicle: saline with Tween-80) was 86 % of control.

With `Cc1ccc2oc(-c3ccccc3)c(O)c(=O)c2c1` the T/C [10] was 95 % of control, the T/C [11] was 100 % of control and the T/C [12] was 90 % of control.

With `CCOc1cc(-c2nccc3cc(OC)c(OC)cc23)cc(OCC)c1OCC` the T/C [6] was 110 % of control, the T/C [7] was 100 % of control and the T/C [8] was 110 % of control. The T/C [9] was 100 % of control, the T/C [16] was 110 % of control and the T/C [17] was 100 % of control.

In the case of `OC1(C2(O)CCCC2)CCCC1`, the T/C [10] was 109 % of control, the T/C [11] was 95 % of control and the T/C [12] was 100 % of control.

`CN(C)CCN1C(=O)c2cccc3cc([N+](=O)[O-])cc(c23)C1=O` was tested, and the T/C (dose: 3.13 mg/kg/injection, schedule: Q01DX009 (ip), vehicle: saline with Tween-80) was 160 % of control and the T/C (dose: 6.25 mg/kg/injection, schedule: Q01DX009 (ip), vehicle: saline with Tween-80) was 215 % of control.

In the case of `CC(=O)Nc1ccccc1C1SCCCS1`, the T/C (dose: 50.0 mg/kg/injection, schedule: Q04DX002 (ip), vehicle: saline with Tween-80) was 102 % of control, the T/C [15] was 98 % of control and the T/C [18] was 106 % of control.

In the case of `O=[N+]([O-])c1cc2c3ccccc3ccc2c2ccccc12`, the T/C [6] was 104 % of control, the T/C [7] was 100 % of control and the T/C [8] was 100 % of control. For the same compound, the T/C [9] was 100 % of control, the T/C [16] was 104 % of control and the T/C [17] was 100 % of control.

With `CC1C=NNC1=O` (configuration not stated) the T/C [2] was 95 % of control and 118 % of control, the T/C (dose: 175.0 mg/kg/injection, schedule: Q01DX001 (ip), vehicle: saline with Tween-80) was 100 % of control and the T/C (dose: 176.0 mg/kg/injection, schedule: Q01DX009 (ip), vehicle: Klucel (hydroxypropylcellulose) (HPC)) was 120 % of control. The T/C [3] was 104 % of control, the T/C (dose: 265.0 mg/kg/injection, schedule: Q01DX001 (ip), vehicle: saline with Tween-80) was 100 % of control and the T/C [19] was 100 % of control. For the same compound, the T/C (dose: 600.0 mg/kg/injection, schedule: Q01DX001 (ip), vehicle: saline with Tween-80) was 109 % of control.

With `COc1ccc(O)c(/C=C/c2cc[n+](C)cc2)c1` the T/C [15] was 91 % of control and the T/C [18] was 97 % of control.

With `C/C=C/CCCCCCCC` the T/C [2] was 104 % of control, the T/C [3] was 104 % of control and the T/C [19] was 119 % of control.

In the case of `CN(C)c1ccc(/C=C2\NC(=O)NC2=O)cc1`, the T/C [2] was 103 % of control, the T/C [3] was 97 % of control and the T/C [19] was 95 % of control.

In the case of `Cn1c2nc3ccccc3c-2nc2ccccc21`, the T/C (dose: 12.5 mg/kg/injection, schedule: Q04DX003 (ip), vehicle: Klucel (hydroxypropylcellulose) (HPC)) was 94 % of control, the T/C (dose: 25.0 mg/kg/injection, schedule: Q04DX003 (ip), vehicle: Klucel (hydroxypropylcellulose) (HPC)) was 98 % of control and the T/C [5] was 103 % of control. The T/C [7] was 101 % of control and the T/C [9] was 116 % of control.

From PubChem BioAssay AID328 (DTP/NCI, 2004)
